Test results from ChEMBL document CHEMBL3244162, “Synthesis and biological evaluation of tetramisole analogues as inhibitors of alkaline phosphatase of the 6-thiopurine-resistant tumor sarcoma 180/TG” (J Med Chem, 1979).
Structures can show the parent of a compound that is named as a salt. The source made the active and inactive calls. The calls are words filed in the database; no cut-off is given here.

What was measured:
Format in all cases: cell-based
Mus musculus [1] = species on record: Mus musculus; experiment: Inhibition of alkaline phosphatase in mouse 180/TG cells assessed as p-nitrophenyl phosphate hydrolysis up to 1 mM by spectrophotometry
[2] = Inhibition of alkaline phosphatase in mouse 180/TG cells assessed as p-nitrophenyl phosphate hydrolysis by spectrophotometry; conditions: read-out: I50
Mus musculus [3] = species on record: Mus musculus; experiment: Inhibition of alkaline phosphatase in mouse 180/TG cells assessed as p-nitrophenyl phosphate hydrolysis up to 5 mM by spectrophotometry

IC50 [2] [µM] | SMILES | inhibition (Mus musculus [1]) | inhibition (Mus musculus [3]) [%]
– | c1ccc(-c2cn3c(n2)OCC3)cc1 | inactive | –
45 | c1ccc(C2CN3CCSC3=N2)cc1 (stereo not given) [TETRAMISOLE HYDROCHLORIDE] | – | –
– | c1ccc(C2CN3CCNC3=N2)cc1 (stereo not given) | inactive | 15
210 | c1ccc(C2CN3CCOC3=N2)cc1 (stereo not given) | – | –
